# Data reported in patent US20230338391A1, “TREATMENT FOR DEPRESSION” (TAKEDA PHARMACEUTICAL COMPANY LIMITED, priority 2020, published 2023).
# System: healthy subjects
# Assay: TMS crossover study: safety and tolerability
# Conditions: 0.5 mg/kg IV infusion, 20 subjects
smiles,measurement,value
"CNC1(c2ccccc2Cl)CCCCC1=O (stereo not shown) [ketamine, reference compound]",discontinuation because of AEs,One subject in the ketamine treatment was discontinued from study drug because of AEs
